How the values were obtained:
[1] = tested on: Human immunodeficiency virus; assay: Antiviral activity against Human immunodeficiency virus; assay type: functional, organism-based; details: Human immunodeficiency virus 1
[2] = tested on: Human immunodeficiency virus; assay: Antiviral activity against Human immunodeficiency virus assessed as protection against virus-induced cytopathogenicity; assay type: functional; set-up: concentration or dose not given beside the values
Pichia kudriavzevii = assay: Antifungal activity against Pichia kudriavzevii G03; assay type: functional
Nakaseomyces glabratus = assay: Antifungal activity against Candida glabrata H05; assay type: functional
Candida albicans [3] = assay: Antifungal activity against Candida albicans ATCC 10231; assay type: functional
Candida albicans [4] = assay: Antifungal activity against Candida albicans; assay type: functional
Aspergillus fumigatus = assay: Antifungal activity against Aspergillus fumigatus; assay type: functional
Escherichia coli = assay: Antibacterial activity against Escherichia coli 2231; assay type: functional
Staphylococcus aureus = assay: Antibacterial activity against Staphylococcus aureus 209P; assay type: functional

| SMILES | IC50 [1] | Activity [2] | inhibition zone (IZ) (Pichia kudriavzevii) | inhibition zone (IZ) (Nakaseomyces glabratus) | inhibition zone (IZ) (Candida albicans [3]) | inhibition zone (IZ) (Candida albicans [4]) | inhibition zone (IZ) (Aspergillus fumigatus) | inhibition zone (IZ) (Escherichia coli) | inhibition zone (IZ) (Staphylococcus aureus) |
| --- | --- | --- | --- | --- | --- | --- | --- | --- | --- |
| Cc1cc(C2=CC(c3c(Cl)cccc3Cl)N(C(=O)c3ccncc3)N2)ccc1O (stereo not given) | > 14 µM | 24% | 5 mm | 10 mm | >15 mm | >15 mm | >15 mm | >15 mm | >15 mm |
| Cc1cc(C2=CC(c3ccccc3)N(C(=O)c3ccncc3)N2)ccc1O (stereo not given) | > 11 µM | 13% | <5 mm | <5 mm | <5 mm | <5 mm | 5 mm | 5 mm | 5 mm |
| COc1ccc(C2C=C(c3ccc(O)c(C)c3)NN2C(=O)c2ccncc2)cc1OC (stereo not given) | > 14 µM | 24% | <5 mm | <5 mm | <5 mm | 5 mm | 10 mm | 10 mm | 10 mm |
| COc1cc(C2C=C(c3ccc(O)c(C)c3)NN2C(=O)c2ccncc2)cc(OC)c1OC (stereo not given) | > 66 µM | 26% | <5 mm | <5 mm | <5 mm | 5 mm | 5 mm | 5 mm | 5 mm |
| Cc1cc(C2=CC(c3ccco3)N(C(=O)c3ccncc3)N2)ccc1O (stereo not given) | 7 µM | 86% | <5 mm | <5 mm | <5 mm | 5 mm | >15 mm | >15 mm | >15 mm |
| Cc1cc(C2=CC(c3ccc(F)cc3)N(C(=O)c3ccncc3)N2)ccc1O (stereo not given) | > 68 µM | 8% | <5 mm | <5 mm | <5 mm | >15 mm | >15 mm | >15 mm | >15 mm |
| Cc1cc(C2=CC(c3ccccc3Cl)N(C(=O)c3ccncc3)N2)ccc1O (stereo not given) | > 53 µM | 24% | <5 mm | <5 mm | <5 mm | <5 mm | >15 mm | >15 mm | >15 mm |
| Cc1cc(C2=CC(c3cccc([N+](=O)[O-])c3)N(C(=O)c3ccncc3)N2)ccc1O (stereo not given) | > 11 µM | 40% | <5 mm | <5 mm | <5 mm | <5 mm | >15 mm | >15 mm | >15 mm |
| COc1ccc(C2C=C(c3ccc(O)c(C)c3)NN2C(=O)c2ccncc2)cc1 (stereo not given) | > 125 µM | 24% | <5 mm | <5 mm | <5 mm | <5 mm | 5 mm | 10 mm | 5 mm |
| Cc1cc(C2=CC(c3ccc(Cl)cc3)N(C(=O)c3ccncc3)N2)ccc1O (stereo not given) | > 36 µM | 42% | <5 mm | <5 mm | <5 mm | >15 mm | >15 mm | >15 mm | >15 mm |
| Cc1cc(C2=CC(c3ccc(N(C)C)cc3)N(C(=O)c3ccncc3)N2)ccc1O (stereo not given) | 6 µM | 102% | 5 mm | 10 mm | 10 mm | >15 mm | >15 mm | >15 mm | >15 mm |
| OC(Cn1cncn1)(Cn1cncn1)c1ccc(F)cc1F [FLUCONAZOLE] | – | – | >15 mm | >15 mm | >15 mm | >15 mm | >15 mm | <5 mm | <5 mm |
| Cc1ccnc2c1NC(=O)c1cccnc1N2C1CC1 [NEVIRAPINE] | 0.1 µM | 98% | – | – | – | – | – | – | – |
| CC1COc2c(N3CCN(C)CC3)c(F)cc3c(=O)c(C(=O)O)cn1c23 (stereo not given) [OFLOXACIN] | – | – | <5 mm | <5 mm | <5 mm | <5 mm | <5 mm | >15 mm | >15 mm |
